From article PMC9981942, “Pharmacokinetics and tissue distribution of Ramulus Mori (Sangzhi) alkaloids in rats and its effects on liver enzyme activity” (Frontiers in Pharmacology, 2023)
Read-outs that look alike come from different tables or passages of the source.

Columns and labels:
rat CYP2C11 = biological target: T1, rat CYP2C11 (Rattus norvegicus, UniProt P08683); experiment: Inhibition of CYP450s in rat liver microsomes, probe mephenytoin; conditions: RLMs; SZ-A 8.899 μg/mL, DNJ 20 μM, FA 5 μM, DAB 8 μM
T1 sequence (P08683 1-500): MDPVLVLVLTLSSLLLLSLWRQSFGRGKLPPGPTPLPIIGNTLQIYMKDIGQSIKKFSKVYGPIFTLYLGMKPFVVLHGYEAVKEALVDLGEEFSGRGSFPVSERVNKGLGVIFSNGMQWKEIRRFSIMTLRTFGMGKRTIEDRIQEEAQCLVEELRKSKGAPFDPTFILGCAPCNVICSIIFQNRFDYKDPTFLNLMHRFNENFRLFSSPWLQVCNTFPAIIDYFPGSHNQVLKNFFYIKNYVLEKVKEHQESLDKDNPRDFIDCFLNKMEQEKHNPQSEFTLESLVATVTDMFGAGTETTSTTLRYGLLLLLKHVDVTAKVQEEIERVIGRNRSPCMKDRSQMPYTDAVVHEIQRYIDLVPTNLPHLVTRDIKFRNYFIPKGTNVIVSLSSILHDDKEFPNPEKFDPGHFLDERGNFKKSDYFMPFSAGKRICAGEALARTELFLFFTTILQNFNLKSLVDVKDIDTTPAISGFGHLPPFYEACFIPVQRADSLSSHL

[1] = Pharmacokinetic study: plasma levels after oral SZ-A in SD rats (LC-MS/MS, DAS 3.2.8); assay type: in vivo; conditions: for Tmax / AUC(0-inf) / AUC(0-t) / Cmax / half-life / MRT last / MRT inf: both sexes, rat; for Tmax: SD, po; for Tmax / AUC(0-inf) / AUC(0-t) / Cmax / half-life / MRT last / MRT inf / CLz / VRT(0-t) / VRT(0-∞) / Vz: plasma; for AUC(0-inf) / AUC(0-t) / Cmax / half-life / CLz / VRT(0-t) / VRT(0-∞) / Vz: n=8; for MRT last: n=8, read-out: MRT(0-t); for MRT inf: n=8, read-out: MRT(0-∞)
Procedure: Twenty-four SD rats were fasted for 12 h (free access to water) and randomly classified into three groups (n = 8; half male and female) that received different doses of SZ-A solution (25, 50, and 200 mg/kg) via oral administration. After completion of dose administration, blood samples (0.3 mL) were collected through an indwelling catheter from the jugular vein at predetermined time points (5, 15, 30, and 45 min, 1, 2, 4, 8, and 24 h). The blood was centrifuged at 5,000 rpm for 10 min to separate the plasma. All plasma samples were stored frozen at −80°C until liquid chromatography coupled to tandem mass spectrometry (LC-MS/MS) analysis (AB SCIEX Triple Quad™ 4,500 mass spectrometer, Applied Biosystems Inc., United States).
(§1) Primary pharmacokinetic parameters, including Cmax, Tmax, area under the plasma concentration-time curve (AUC), t1/2, clearance rate, and the apparent volume of distribution, were calculated using DAS 3.2.8 (Bio Guider Co., Shanghai, China).

[2] = Tissue distribution after single oral SZ-A (40 mg/kg) in SD rats, plasma and 12 tissues; assay type: in vivo; conditions: for half-life / AUC(0-t) / Tmax / Cmax: rat; for AUC(0-t): n=5, read-out: AUC(0-t)
Procedure: Twenty SD rats were randomly classified into four groups corresponding to four-time points (5 and 30 min, 4 and 12 h) (n = 20; 5 animals per time point) that received SZ-A solution (40 mg/kg) via oral administration. After the completion of dose administration, plasma and tissue samples (derived from the heart, liver, spleen, lung, kidney, aortic blood vessels, brown adipose tissue, subcutaneous adipose tissue, abdominal adipose tissue, muscle (thigh skeletal muscle), pancreas, and brain) were collected at predetermined time points. Twenty-eight ICR mice were randomly classified into four groups (n = 7 per group) corresponding to four-time points (5 and 30 min, 4 and 12 h) that received SZ-A solution (20 mg/kg) via oral administration. After the completion of dose administration, tissue samples (derived from the heart, liver, spleen, lung, kidney, aortic blood vessels, brown adipose tissue, abdominal adipose tissue, muscle (thigh skeletal muscle), pancreas, and brain) were collected at predetermined time points.
Collected tissue samples were washed with normal saline. The surface moisture was removed by blotting gently with filter paper, and the weight was recorded. After adding an appropriate amount of normal saline, these tissue samples were ground into homogenates using a cryogenic grinder (JX-CL, Shanghai Jingxin, Shanghai, China). The obtained homogenates were stored at −80°C until LC-MS/MS analysis.
as §1

[3] = Sprague-Dawley, muscle (thigh skeletal muscle), Muscle, n=5
[4] = Subcutaneous adipose tissue, n=5

For OC[C@H]1NC[C@H](O)[C@@H](O)[C@@H]1O [DNJ, 1-deoxynojirimycin], the “effect on rat CYP2C11” value (rat CYP2C11) was “mild activation effect”, the Tmax ([1]; 25 mg/kg, oral SZ-A 25 mg/kg, n=8, read-out: Tmax) was 24.6 ± 13.8 min and the Tmax ([1]; 50 mg/kg, oral SZ-A 50 mg/kg, n=8, read-out: Tmax) was 37.8 ± 19.8 min. The Tmax ([1]; 200 mg/kg, oral SZ-A 200 mg/kg, n=8, read-out: Tmax) was 46.8 ± 15 min, the Tmax ([1]; 200 mg/kg, oral SZ-A 25, 50 and 200 mg/kg, read-out: time to maximum plasma concentration (Tmax), all dose groups) was no more than 52.8 min and the AUC(0-inf) ([1]; oral SZ-A 25 mg/kg) was 7160 ± 1650 ng·h/mL. It also gave an AUC(0-t) ([1]; oral SZ-A 25 mg/kg) of 7160 ± 1650 ng·h/mL, a Cmax ([1]; oral SZ-A 25 mg/kg) of 4950 ± 978 ng/mL and a half-life ([1]; oral SZ-A 25 mg/kg) of 61.2 ± 16.2 min. For the same compound, the MRT last ([1]; oral SZ-A 25 mg/kg) was 76.2 ± 12 min, the MRT inf ([1]; oral SZ-A 25 mg/kg) was 76.2 ± 12 min and the AUC(0-inf) ([1]; oral SZ-A 50 mg/kg) was 12600 ± 3470 ng·h/mL. The AUC(0-t) ([1]; oral SZ-A 50 mg/kg) was 12600 ± 3470 ng·h/mL, the Cmax ([1]; oral SZ-A 50 mg/kg) was 7080 ± 1640 ng/mL and the half-life ([1]; oral SZ-A 50 mg/kg) was 64.2 ± 2.4 min. It also gave an MRT last ([1]; oral SZ-A 50 mg/kg) of 90.6 ± 25.2 min, an MRT inf ([1]; oral SZ-A 50 mg/kg) of 90.6 ± 25.2 min and an AUC(0-inf) ([1]; oral SZ-A 200 mg/kg) of 38500 ± 18000 ng·h/mL. The AUC(0-t) ([1]; oral SZ-A 200 mg/kg) was 38300 ± 18000 ng·h/mL, the Cmax ([1]; oral SZ-A 200 mg/kg) was 19400 ± 10800 ng/mL and the half-life ([1]; oral SZ-A 200 mg/kg) was 195 ± 252 min. The MRT last ([1]; oral SZ-A 200 mg/kg) was 107 ± 18 min, the MRT inf ([1]; oral SZ-A 200 mg/kg) was 121 ± 35.4 min and the “differences in t1/2 and CLz between the three doses” value ([1]; oral SZ-A 25, 50, 200 mg/kg) was “no significant differences”. For the same compound, the CLz ([1]; oral SZ-A 25 mg/kg) was 41.7 ± 11.2 mL/min/kg, the “VRT(0-t)” value ([1]; oral SZ-A 25 mg/kg) was 1.15±0.57 h^2 and the “VRT(0-∞)” value ([1]; oral SZ-A 25 mg/kg) was 1.15±0.57 h^2. The Vz ([1]; oral SZ-A 25 mg/kg) was 3.65 ± 1.45 L/kg, the CLz ([1]; oral SZ-A 50 mg/kg) was 48 ± 12.7 mL/min/kg and the “VRT(0-t)” value ([1]; oral SZ-A 50 mg/kg) was 2.02±1.71 h^2. For the same compound, the “VRT(0-∞)” value ([1]; oral SZ-A 50 mg/kg) was 2.02±1.71 h^2, the Vz ([1]; oral SZ-A 50 mg/kg) was 4.47 ± 1.30 L/kg and the CLz ([1]; oral SZ-A 200 mg/kg) was 74.5 ± 44.2 mL/min/kg. For the same compound, the “VRT(0-t)” value ([1]; oral SZ-A 200 mg/kg) was 6.42±4.65 h^2, the “VRT(0-∞)” value ([1]; oral SZ-A 200 mg/kg) was 16.10±21.66 h^2 and the Vz ([1]; oral SZ-A 200 mg/kg) was 17.77 ± 20.83 L/kg. For the same compound, the “peak time in the brain” value [2] was 4 h, the “tissues with the highest concentrations” value [2] was “kidney, followed by the liver, aortic vessels, and brown adipose tissue” and the CLz ([2]; Plasma, n=5) was 35.7 ± 5.17 mL/min/kg. It also gave a Vz ([2]; Plasma, n=5) of 1.59 ± 0.29 L/kg, a half-life ([2]; Sprague-Dawley, Brown adipose tissue, n=5) of 26.4 ± 13.2 min and an AUC(0-t) ([2]; Sprague-Dawley, Brown adipose tissue) of 3750 ± 995 ng·h/mL. The Tmax ([2]; Sprague-Dawley, Brown adipose tissue, n=5, read-out: Tmax) was 30 min, the Cmax ([2]; Sprague-Dawley, Kidney, n=5) was 68200 ± 12400 ng/mL and the half-life ([2]; Sprague-Dawley, Kidney, n=5) was 148 ± 30.6 min. For the same compound, the AUC(0-t) ([2]; Sprague-Dawley, Kidney) was 174000 ± 37100 ng·h/mL, the Tmax ([2]; Sprague-Dawley, Kidney, n=5, read-out: Tmax) was 30 min and the Cmax ([2]; Sprague-Dawley, Liver, n=5) was 3300 ± 893 ng/mL. It also gave a half-life ([2]; Sprague-Dawley, Liver, n=5) of 33 ± 0.6 min, an AUC(0-t) ([2]; Sprague-Dawley, Liver) of 7560 ± 1840 ng·h/mL and a Tmax ([2]; Sprague-Dawley, Liver, n=5, read-out: Tmax) of 25.2 ± 11.4 min. For the same compound, the Cmax ([2]; Sprague-Dawley, Lung, n=5) was 806 ± 23.5 ng/mL, the half-life ([2]; Sprague-Dawley, Lung, n=5) was 28.2 ± 14.4 min and the Tmax ([2]; Sprague-Dawley, Lung, n=5, read-out: Tmax) was 13.2 ± 14.4 min. The Cmax ([2]; Sprague-Dawley, Pancreas, n=5) was 386 ± 124 ng/mL, the half-life ([2]; Sprague-Dawley, Pancreas, n=5) was 130 ± 205 min and the AUC(0-t) ([2]; Sprague-Dawley, Pancreas) was 2190 ± 614 ng·h/mL. The Tmax ([2]; Sprague-Dawley, Pancreas, n=5, read-out: Tmax) was 30 min, the Cmax ([2]; Sprague-Dawley, Plasma, n=5) was 5830 ± 843 ng/mL and the half-life ([2]; Sprague-Dawley, Plasma, n=5) was 31.2 ± 1.2 min. For the same compound, the AUC(0-t) ([2]; Sprague-Dawley, Plasma) was 13700 ± 1970 ng·h/mL, the Tmax ([2]; Sprague-Dawley, Plasma, n=5, read-out: Tmax) was 30 min and the Cmax [2, 3] was 725 ± 279 ng/mL. The half-life [2, 3] was 45.6 ± 18 min, the AUC(0-t) ([2]; Sprague-Dawley, muscle (thigh skeletal muscle), Muscle) was 2640 ± 544 ng·h/mL and the Tmax ([2]; Sprague-Dawley, muscle (thigh skeletal muscle), Muscle, n=5, read-out: Tmax) was 19.8 ± 13.8 min. It also gave a Cmax ([2]; Abdominal adipose tissue, n=5) of 1270 ± 428 ng/mL, a half-life ([2]; Abdominal adipose tissue, n=5) of 102 ± 135 min and an AUC(0-t) ([2]; Abdominal adipose tissue) of 3730 ± 1010 ng·h/mL. The Tmax ([2]; Abdominal adipose tissue, n=5, read-out: Tmax) was 25.2 ± 11.4 min, the Cmax ([2]; Aortic blood vessels, n=5) was 4360 ± 2870 ng/mL and the half-life ([2]; Aortic blood vessels, n=5) was 36 ± 6.6 min. For the same compound, the AUC(0-t) ([2]; Aortic blood vessels) was 6230 ± 1790 ng·h/mL, the Tmax ([2]; Aortic blood vessels, n=5, read-out: Tmax) was 4.8 min and the Cmax ([2]; Brain, n=5) was 242 ± 50.3 ng/mL. For the same compound, the half-life ([2]; Brain, n=5) was 482 ± 430 min, the AUC(0-t) ([2]; Brain) was 2060 ± 562 ng·h/mL and the Tmax ([2]; Brain, n=5, read-out: Tmax) was 151 ± 122 min. The Cmax ([2]; Brown adipose tissue, n=5) was 1420 ± 513 ng/mL, the Cmax ([2]; Heart, n=5) was 588 ± 140 ng/mL and the half-life ([2]; Heart, n=5) was 31.8 ± 11.4 min. The AUC(0-t) ([2]; Heart) was 1340 ± 373 ng·h/mL, the Tmax ([2]; Heart, n=5, read-out: Tmax) was 10.2 ± 11.4 min and the AUC(0-t) ([2]; Lung) was 1220 ± 501 ng·h/mL. For the same compound, the Cmax ([2]; Spleen, n=5) was 660 ± 225 ng/mL, the half-life ([2]; Spleen, n=5) was 37.2 ± 1.8 min and the AUC(0-t) ([2]; Spleen) was 1880 ± 845 ng·h/mL. For the same compound, the Tmax ([2]; Spleen, n=5, read-out: Tmax) was 30 min, the Cmax [2, 4] was 577 ± 163 ng/mL and the half-life [2, 4] was 37.8 min. The AUC(0-t) ([2]; Subcutaneous adipose tissue) was 1210 ± 304 ng·h/mL, the Tmax ([2]; Subcutaneous adipose tissue, n=5, read-out: Tmax) was 30 min and the Tmax ([2]; heart, aortic vessels, read-out: time of peak concentration in heart and aortic vessels (converted)) was 5 min. For the same compound, the Tmax ([2]; other tissues (not named), tissues not named separately for that alkaloid, read-out: time of peak concentration in other tissues (converted)) was 30 min and the accumulation in tissues ([2]; up to 12 h) was “no long-term accumulation”.
